Values of other authors, collected in publication PMC3199145 (Future medicinal chemistry, 2011).
Each block holds one compound with its values, some of them ahead of it.

How the values were obtained:
Trypanosoma cruzi [1] = conditions: drug concentration that completely clears parasite from T. cruzi infected macrophage cells; P Doyle & J Engel. Unpublished Data
[2] = system: Trypanosoma brucei cathepsin B-like protease (TbCatB); conditions: read-out: IC50 TbCatB
Trypanosoma cruzi [3] = system: Trypanosoma cruzi

- IC50 [2]: 4 µM
Compound: CN1CCN(C(=O)N[C@@H](Cc2ccccc2)C(=O)N[C@H](/C=C/S(=O)(=O)c2ccccc2)CCc2ccccc2)CC1 [Compound 1, K11777]
- MTC Trypanosoma cruzi (minimal trypanocidal concentration) (Trypanosoma cruzi [1]): 8 µM
- Efficacy in vivo against T. cruzi parasites (Trypanosoma cruzi [3]): effective

Compound: C[C@@H](c1nc(-c2ccc(C#N)cc2)cs1)[C@](O)(Cn1cncn1)c1ccc(F)cc1F [Ravuconazole]
- Efficacy in animal models (Trypanosoma cruzi [3]; compared with posoconazole): more limited than posoconazole

Compound: CC[C@@H]([C@H](C)O)n1ncn(-c2ccc(N3CCN(c4ccc(OC[C@@H]5CO[C@@](Cn6cncn6)(c6ccc(F)cc6F)C5)cc4)CC3)cc2)c1=O [posaconazole]
- Cure of mice with acute and chronic Chagas disease (Trypanosoma cruzi [3]; mice): able to cure mice
